Each compound was assayed against T1, OAT3 (Homo sapiens, UniProt Q8TCC7) (assay: Inhibition of 6-carboxyfluorescein uptake in HEK293/OAT3 cells). Settings: ratio of OAT3 IC50 to hURAT1 IC50 (selectivity).
T1 construct: host or cells: HEK293/OAT3 (hygromycin B selection)
T1 sequence (Q8TCC7 1-542): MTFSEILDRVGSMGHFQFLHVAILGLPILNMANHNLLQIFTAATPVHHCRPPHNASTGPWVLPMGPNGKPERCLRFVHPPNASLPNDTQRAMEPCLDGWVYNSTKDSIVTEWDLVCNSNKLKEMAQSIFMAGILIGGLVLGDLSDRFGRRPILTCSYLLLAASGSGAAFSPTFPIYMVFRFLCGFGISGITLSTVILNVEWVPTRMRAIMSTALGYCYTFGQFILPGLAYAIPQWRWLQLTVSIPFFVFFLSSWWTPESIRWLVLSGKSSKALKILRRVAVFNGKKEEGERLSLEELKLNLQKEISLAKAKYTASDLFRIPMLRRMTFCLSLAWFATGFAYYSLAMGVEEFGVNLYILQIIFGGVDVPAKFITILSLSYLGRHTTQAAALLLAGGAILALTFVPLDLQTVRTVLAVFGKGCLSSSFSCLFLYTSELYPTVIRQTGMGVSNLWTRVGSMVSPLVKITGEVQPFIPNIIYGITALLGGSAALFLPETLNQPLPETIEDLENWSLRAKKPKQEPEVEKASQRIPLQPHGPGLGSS
Format: cell-based
Description: 1. Reagents and Consumables
2. Culture Media and Solutions
Thaw medium: 90% DMEM+10% FBS+1× Pen/Strep, preserved at 4° C. for later use.
Culture medium: 90% DMEM+10% FBS+1× Pen/Strep+100 μg/mL Hygromycin B, preserved at 4° C. for later use.
5× Matrigel: 1 vial of Matrigel was thawed overnight at 4° C., then diluted to 500 mL with cold DMEM. The resulting solution was preserved at 4° C. for later use after subpackaging.
Uptake assay buffer: 487.5 mL HBSS buffer was mixed with 12.5 mL 1M HEPES, with the final HEPES concentration being 25 mM. This was prepared right before the experiment.
30 mM probenecid: 2 mg of the powder was dissolved in 233.62 μL of 100% DMSO. The resulting solution was preserved at −20° C. for later use after subpackaging.
The resulting solution was preserved at −20° C. for later use after subpackaging.
The resulting solution was preserved away from light at 4° C. for later use after subpackaging.
Envision multimode plate reader (with parameters as follows)
Emission wavelength: 590 nm
4. Experimental Procedures
The cells were quickly taken out from a liquid nitrogen tank and shaken in a water bath at 37° C. until completely thawed. The cell suspension was quickly added to a pre-heated culture medium and centrifuged at 1000 rpm for 5 min. The supernatant was discarded. A fresh pre-heated culture medium was added for resuspension. The cell suspension was transferred into a 100 mm dish and incubated at 37° C. at 5% CO2.
Typically, the cells were passaged every 2-3 days in a ratio of 1:3 to 1:5.
5× Matrigel was added to a 384-well cell plate at 5 μL/well for incubation in an incubator at 37° C. for 30 min, followed by digestion.
Cells were collected after digestion, counted, resuspended at 1×10^6 cells/mL using a culture medium, and added to a coated plate at 60 μL/well by using a Multidrop Combi to give a cell density of 6×10^4 cells/well, followed by incubating overnight at 37° C. at 5% CO2.
3) Preparation of Uptake Assay Buffer
On the day of experiment, fresh buffer was prepared as needed.
4) Preparation of Compounds (Using ECHO)
Working solutions of 11 concentrations were prepared for plotting a curve with stock solutions of 3 concentrations using PlateMap. The 3 concentrations were 30 mM, 0.3 mM, 0.003 mM, all formulated in DMSO.
5) Preparation of a Mixed Solution of 6-Carboxyfluorescein (6 μM) and Compounds
According to amount used, 6-carboxyfluorescein (1 mM) was diluted with uptake assay buffer to give a diluted 6-carboxyfluorescein solution (6 μM). […] The mixture was preserved away from light for later use. The concentration of DMSO was 2% at this time.
The cells were incubated overnight before the culture medium was carefully removed. Then 80 μL of uptake assay buffer was added to each well at room temperature for washing the cells 3 times. After washing, 20 μL of uptake assay buffer was added to each well.
The mixed solution of 6-CF (6 μM) and compounds, prepared in step 5, was transferred to a cell plate at 20 μL/well with Bravo. The mixed solution was centrifuged at 400 rpm for 1 min, and incubated away from light at room temperature for 10 min. At this time, the concentration of 6-CF became 3 μM, the concentration of the compound became the final concentration, and the concentration of DMSO became 1%.
The cells were washed 3 times with pre-cooled uptake assay buffer at 80 μL/well, to remove unbound 6-CF.
The plate was read on the Envision. The data were recorded and processed to calculate IC50.
According to the fluorescence signals of HPE and ZPE on each cell plate, the inhibition rate (%) of the compound in each well on the cell plate was calculated.
The XLfit software was used to plot the curve for calculating the IC50 values of the compounds. The IC50 value of the positive compound was also one of the criteria for controlling the quality of each experiment.

| Compound | IC50, OAT3/IC50, hURAT1 |
| --- | --- |
| CCc1nc2ncc(F)cn2c1C(=O)c1cc(Br)c(O)c(Br)c1 [Example 4, (3,5-dibromo-4-hydroxyphenyl)(2-ethyl-6-fluoroimidazo[1,2-a]pyrimidin-3-yl)methanone] | 36.5 |
| CCc1nc2ncc(Cl)cn2c1C(=O)c1cc(Br)c(O)c(Br)c1 [Example 6, (6-chloro-2-ethylimidazo[1,2-a]pyrimidin-3-yl)(3,5-dibromo-4-hydroxyphenyl)methanone] | 24.8 |
| CCc1nc2ncc(Br)cn2c1C(=O)c1cc(Br)c(O)c(Br)c1 [Example 3, (6-bromo-2-ethylimidazo[1,2-a]pyrimidin-3-yl)(3,5-dibromo-4-hydroxyphenyl)methanone] | 8.9 |
| CCc1nc2ncccn2c1C(=O)c1cc(Br)c(O)c(C(F)(F)F)c1 [Example 23, (3-bromo-4-hydroxy-5-(trifluoromethyl)phenyl)(2-ethylimidazo[1,2-a]pyrimidin-3-yl)methanone] | 10.3 |
| CCc1nc2ncc(F)cn2c1C(=O)c1cc(Br)c(O)c(C#N)c1 [Example 14, 3-bromo-5-(2-ethyl-6-fluoroimidazo[1,2-a]pyrimidine-3-carbonyl)-2-hydroxybenzonitrile] | 3.6 |
| CCc1nc2ncc(F)cn2c1C(=O)c1cc(Br)c(O)c(C(F)(F)F)c1 [Example 18, (3-bromo-4-hydroxy-5-(trifluoromethyl)phenyl)(2-ethyl-6-fluoroimidazo[1,2-a]pyrimidin-3-yl)methanone] | 16.2 |
| CCn1nc2ccc(F)cc2c1C(=O)c1cc(Br)c(O)c(Br)c1 [Example 9, (3,5-dibromo-4-hydroxyphenyl)(2-ethyl-5-fluoro-2H-indazol-3-yl) methanone] | 2.0 |
| CCn1nc2ccncc2c1C(=O)c1cc(Br)c(O)c(Br)c1 [Example 16, (3,5-dibromo-4-hydroxyphenyl)(2-ethyl-2H-pyrazolo[4,3-c]pyridin-3-yl)methanone] | 3.1 |
| CCc1nc2cc(C(F)(F)F)ncn2c1C(=O)c1cc(Br)c(O)c(Br)c1 [Example 7, (3,5-dibromo-4-hydroxyphenyl)(2-ethyl-7-(trifluoromethyl)imidazo[1,2-c]pyrimidin-3-yl)methanone] | 3.0 |
| CCc1nc2cc(Cl)ncn2c1C(=O)c1cc(Br)c(O)c(Br)c1 [Example 21, (7-chloro-2-ethylimidazo[1,2-f]pyrimidin-3-yl)(3,5-dibromo-4-hydroxyphenyl)methanone] | 5.5 |
| CCc1nc2ncccn2c1C(=O)c1cc(Br)c(O)c(Br)c1 [Example 20, 2,6-dibromo-4-([2-ethylimidazo[1,2-a]pyrimidin-3-yl]carbonyl) phenol] | 8.7 |
| CCc1nc2ncc(C(F)(F)F)cn2c1C(=O)c1cc(Br)c(O)c(Br)c1 [Example 5, (3,5-dibromo-4-hydroxyphenyl)(2-ethyl-6-(trifluoromethyl)imidazo[1,2-a]pyrimidin-3-yl)methanone] | 21.1 |
| CCc1nc2ncccn2c1C(=O)c1cc(Br)c(O)c(C#N)c1 [Example 22, 3-bromo-5-(2-ethylimidazo[1,2-a]pyrimidine-3-carbonyl)-2-hydroxybenzonitrile] | 1.4 |

— patent US11453674B2, “Heterocyclic compound, preparation method and use thereof in medicine” (SUZHOU SINOVENT PHARMACEUTICALS CO., LTD., priority 2019, dated 2022)
